Values quoted from earlier work in US20200054560A1 (Alnova Pharmaceuticals, Ltd., priority 2017, published 2020).

solubility in N,N-dimethylformamide (N,N-dimethylformamide): slightly soluble
solubility above pH 4 (above pH 4): reduces significantly
solubility behaviour at or below pH 4 (at or below pH 4): high-solubility compound
solubility in dimethyl sulfoxide (dimethyl sulfoxide): slightly soluble
solubility in methanol (methanol): very slightly soluble
solubility in water (water): very slightly soluble
Compound: CC(=O)c1c(C)c2cnc(Nc3ccc(N4CCNCC4)cn3)nc2n(C2CCCC2)c1=O [Palbociclib, 6-acetyl-8-cyclopentyl-5-methil-2-(5-piperazin-1-yl-pyridin-2-ylamino)-8H-pyrido [2,3-d] pyridin-7-one]
